From patent US20240082218A1, “PHARMACEUTICAL COMBINATIONS COMPRISING A KRAS G12C INHIBITOR AND USES OF A KRAS G12C INHIBITOR FOR THE TREATMENT OF CANCERS” (priority 2020, published 2024)
“Also recorded” adds a separate entry of the source. Where two headings read alike, the source gives them in different places. Marks after values point to notes of the source that are not given here.

How the values were obtained:
HCC44 xenograft = experiment: Anti-tumor activity in HCC44 xenografts; type: in vivo, mice; conditions: 10, 30 and 100 mg/kg oral daily
KRASG12C [1] = target: T1, KRASG12C (Homo sapiens, UniProt P01116, G12C); experiment: Cellular target occupancy 6 h; type: cell-based
KRASG12C [2] = target: T1, KRASG12C; experiment: In vivo KRASG12C target occupancy in MIA PaCa-2 xenografts; design: endogenous in cells; host or cells: MIA PaCa-2 tumour xenografts in mice
Protocol: (§1) KRASG12C inhibition can be assessed by measuring free KRASG12C levels (target occupancy) and other biomarkers in the MAPK signaling pathway, such as decreased levels of phosphorylated ERK1/2 (pERK) and downregulation of DUSP6 mRNA transcript. […] In the less sensitive NCI-H2122 xenografts, orally administered JDQ443 (100 mg/kg QD) achieved approximately 80% KRASG12C inhibition and 90% decrease in DUSP6 mRNA transcript, causing stasis which is the maximum response in this model upon MAPK pathway inhibition.

DUSP6 mRNA transcript = experiment: In vivo DUSP6 mRNA in MIA PaCa-2 xenografts; conditions: 30 mg/kg QD oral
[3] = Oral exposure and tolerability in mouse
[4] = system: NCI-H2122 (KRASG12C lung) xenograft; type: in vivo, mice
[5] = system: KRAS G12C-mutated colorectal cancer PDX models; experiment: KRAS G12C-mutated patient-derived xenograft (PDX) models of human colorectal cancer; type: in vivo, mice; conditions: oral; Compound A 100 mg/kg daily alone or with TNO155 10 mg/kg twice daily; one animal per PDX model
Protocol: Female nude mice were implanted subcutaneously with tumor fragments from each PDX model. Individual mice were assigned to treatment groups for dosing once their tumor volume reached 200-250 mm^3. One animal per PDX model was assigned to each treatment arm. […] The end of study per model was defined as minimum of 28 days treatment, or duration for untreated tumor to reach 1500 mm^3, or duration for two doublings of untreated tumor, whichever was slower. Tumor volumes were recorded and are represented as % tumor volume change f SEM for each group.

NRAS WT = NRAS WT (Homo sapiens, UniProt P01111); experiment: cRAF recruitment 6 h cellular assay; type: cell-based
NRAS WT, sequence (P01111 whole entry): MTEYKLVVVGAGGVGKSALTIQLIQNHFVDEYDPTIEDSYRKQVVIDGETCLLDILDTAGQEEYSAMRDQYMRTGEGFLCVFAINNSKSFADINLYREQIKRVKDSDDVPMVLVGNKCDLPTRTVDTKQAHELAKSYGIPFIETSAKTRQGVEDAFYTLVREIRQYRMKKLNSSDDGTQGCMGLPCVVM

pERK = experiment: In vitro pERK inhibition in H358 cancer cells; type: cell-based; conditions: Homo sapiens, NCI-H358
Protocol: as §1

[6] = system: KRAS G12C-mutated cell lines; experiment: pERK 6 h cellular assay; type: cell-based; conditions: Hec50, 6 h, read-out: pERK 6 h EC50 KRAS^G12C
KRAS G12C_Y96C (GDP) = target: T2, KRAS G12C_Y96C (GDP) (Homo sapiens, UniProt P01116, G12C/Y96C); experiment: Covalent rate constants by RapidFire MS; type: binding; conditions: n=2
T2 construct: the cDNA encoding KRAS, NRAS, and HRAS comprised aa 1-169; made in house; host or cells: E. coli BL21(DE3)
Protocol: (§2) The E. coli expression constructs used in this study were based on the pET system and generated using standard molecular cloning techniques. […] Point mutations were introduced with the QuikChange Lightning Site-Directed Mutagenesis kit (Agilent). All final expression constructs were sequence verified by Sanger sequencing.
(§3) Cell pellets were resuspended in buffer A (20 mM Tris, 500 mM NaCl, 5 mM imidazole, 2 mM TCEP, 10% glycerol, pH 8.0) supplemented with Turbonuclease (Merck) and cOmplete protease inhibitor tablets (Roche). The cells were lysed by three passages through a homogenizer (Avestin) at 800-1000 bar and the lysate clarified by centrifugation at 40000 g for 40 min. The lysate was loaded onto a HisTrap HP 5 ml column (Cytiva) mounted on an ÅKTA Pure 25 chromatography system (Cytiva). Contaminating proteins were washed away with buffer A and bound protein was eluted with a linear gradient to buffer B (buffer A supplemented with 200 mM imidazole). During dialysis O/N the N-terminal His affinity purification tags on the non-tagged and avi-tagged proteins were cleaved off by TEV or HRV3C protease, respectively. The protein solution was re-loaded onto a HisTrap column and the flow through containing the target protein collected. Guanosine 5′-diphosphate sodium salt (GDP, Sigma) or GppNHp-Tetralithium salt (Jena Bioscience) was added to a 24-32× molar excess over protein. […] After 1 hour at room temperature the buffer was exchanged on a PD-10 desalting column (Cytiva) against 40 mM Tris, 200 mM (NH4)2SO4, 0.1 mM ZnCl2, pH 8.0. […] 40 U Shrimp Alkaline Phosphatase (New England Biolabs) was added to GppNHp containing samples only. The sample was then incubated for 1 hour at 5° C. Finally, MgCl2 was added to a concentration of about 30 mM.
(§4) Reactions were stopped at different time points by addition of formic acid to 1%. […] In parallel, compound solubility was assessed by nephelometry and compound concentrations resulting in measurable turbidity were excluded from curve fitting. […]

KRAS G12C_H95Q (GDP) = target: T3, KRAS G12C_H95Q (GDP) (Homo sapiens, UniProt P01116, G12C/H95Q); experiment: Covalent rate constants by RapidFire MS; type: binding; conditions: n=2
T3 construct: the cDNA encoding KRAS, NRAS, and HRAS comprised aa 1-169; made in house; host or cells: E. coli BL21(DE3)
Protocol: as §2, §3, §4

KRAS G12C_Y96D (GDP) = target: T4, KRAS G12C_Y96D (GDP) (Homo sapiens, UniProt P01116, G12C/Y96D); experiment: Covalent rate constants by RapidFire MS; type: binding; conditions: n=3
T4 construct: the cDNA encoding KRAS, NRAS, and HRAS comprised aa 1-169; made in house; host or cells: E. coli BL21(DE3)
Protocol: as §2, §3, §4

[7] = system: MEK Q56P mutated cell lines; experiment: pERK 6 h cellular assay; type: cell-based; conditions: Hec50, 6 h, read-out: pERK 6 h EC50 MEK^Q56P
4-week toxicity study = type: in vivo; conditions: rat

## C=CC(=O)N1CC2(CC(n3nc(-c4ccc5c(cnn5C)c4)c(-c4c(Cl)c(C)cc5[nH]ncc45)c3C)C2)C1 (single isomer, unassigned) [Compound A, 1-{6-[(4M)-4-(5-Chloro-6-methyl-1H-indazol-4-yl)-5-methyl-3-(1-methyl-1H-indazol-5-yl)-1H-pyrazol-1-yl]-2-azaspiro[3.3]heptan-2-yl}prop-2-en-1-one]
HCC44 xenograft
  pattern of maximal response: stasis-like
KRASG12C [1]
  EC50: 0.03 µM
KRASG12C [2]; MIA PaCa-2 xenografts, 30 mg/kg QD oral
  inhibition at 30 mg/kg: ~90%
KRASG12C [2]; in vivo, MiaPaCa2 model
  KRASG12C TO t1/2: ~66 h
DUSP6 mRNA transcript
  decrease in DUSP6 mRNA transcript: ~75%
[3]
  oral bioavailability: orally bioavailable
  tolerability: well-tolerated
[4]; 10 mg/kg daily oral
  anti-tumor activity: weak tumor-growth inhibition
[4]; 30 mg/kg daily oral
  anti-tumor activity: moderate tumor-growth inhibition; also recorded: slightly less than tumor stasis
[4]; 50 mg/kg twice daily oral
  anti-tumor activity: approximate tumor stasis
[4]; 100 mg/kg daily oral
  anti-tumor activity: approximate tumor stasis
[4]; 100 mg/kg daily oral, listed as JDQ443
  anti-tumor activity: stasis
[4]; 10, 30 and 100 mg/kg oral daily
  pattern of maximal response: stasis-like
[5]
  tumor response in CRC PDX models: regression of one PDX model and to a slight to moderate tumor growth delay in some PDX models
NRAS WT
  EC50: > 6 µM
pERK
  IC50: 0.02 µM
[6]
  EC50: 0.02 µM
KRAS G12C_Y96C (GDP)
  Second order rate constant (Kinact/KI): 650 M⁻¹ s⁻¹
KRAS G12C_H95Q (GDP)
  Second order rate constant (Kinact/KI): 9500 M⁻¹ s⁻¹
KRAS G12C_Y96D (GDP)
  Second order rate constant (Kinact/KI): 90 M⁻¹ s⁻¹
[7]
  EC50: > 10 µM
4-week toxicity study
  tolerability in 4-week toxicity study: well tolerated
